Assay results from patent US11999697B2, “Methods and compositions for inhibition of dihydroorotate dehydrogenase” (OHIO STATE INNOVATION FOUNDATION, priority 2018, dated 2024).

Columns and labels:
MOLM-13 = experiment: MTS cell proliferation assay, MOLM-13; type: cell-based; settings: Homo sapiens, 96 hours
Experimental: (§1) Triplicate wells were set up for each condition.
(§2) The assays were carried out in a blinded fashion.

HL-60 = experiment: MTS cell proliferation assay, HL-60; type: cell-based; settings: Homo sapiens, 96 hours
Experimental: as §1, §2

primary human AML cells [1] = experiment: Flow cytometry staining for differentiation (CD11b/CD14); type: cell-based; settings: 1 μM, 14 days
Experimental: Flow cytometry staining for differentiation: Primary AML cells were solubilized from the methocult in the CFU assays. 5e5 cells were stained and analyzed by flow cytometry as follows: Gating on CD45 positive hematopoietic cells; B, T and NK-cells were identified using CD19, CD3 and NK1.1 surface markers; differentiation in the myeloid population was assessed by gating on CD34/CD33 positive myeloid cells and staining for CD11 b and CD14.
FIGS. 5A-5E show representative flow cytometry data for induction of CD11b and CD14 positive cells in primary human AML cells following vehicle treatment, treatment with a representative disclosed compound, Cpd3, or treatment with a reference compound, brequinar (indicated as “BQR” in the figures) using methods as described herein below. Briefly, primary AML cells were treated with vehicle (DMSO), Cpd3 (1 μM) or brequinar (BQR, 1 μM) and plated in methylcellulose for 14 days. Cells were recovered from the methylcellulose and characterized by flow cytometry (gating on CD34/CD33 positive myeloid cells and staining for CD11b and CD14). FIGS. 5A-5C show the percentage of CD11b and CD14 positive cells within the live CD33/CD34 positive population for a representative “responder” sample. FIGS. 5D and 5E show collective data for eight primary AML samples. […]

[2] = tested on: luciferase-expressing MOLM-13 cells; experiment: MOLM13 xenograft study, 10 mg/kg; type: in vivo, NCG mice; settings: 10 mg/kg oral gavage, three or five days per week, Days 7 and 14
Experimental: The effect of a representative disclosed compound, Cpd3, on in vivo tumor growth was assessed in a MOLM13 xenograft study. Briefly, male NCG (NOD-Prkdc^em26Cd52//2rg^em26Cd22/NjuCrl) mice (N=12 per group) were given an intravenous injection of 1×10^4 luciferase-expressing MOLM-13 cells. […] Therefore at 3 days post-engraftment (day 0 treatment), mice were injected with luciferin, imaged for leukemia burden, and began dosing with Cpd3 (10 mg/kg daily by oral gavage) or vehicle control (15% ethanol, 30% PEG-400 in PBS). Mice were treated on two different dosing schedules: Cpd3 three days per week (Mon, Wed and Fri) or five days per week (Mon through Fri). Mice on the Mon, Wed, Fri schedule received a vehicle on Tues and Thurs, so that all mice were consistently gavaged five days per week. In addition to day 0, mice were monitored once weekly (days 7 and 14 post-treatment) by IVIS imaging. In order to assess tumor burden, mice were injected with luciferin and imaged on an IVIS imager Days 0, 7, and 14. […] The data for tumor burden at Day 7 (FIG. 11B) and Day 14 (FIG. 11C) is summarized in bar graph format.

[3] = tested on: luciferase-expressing MOLM-13 cells; experiment: MOLM13 xenograft study, daily dosage regimen; type: in vivo, NCG mice
Experimental: The effect of a representative disclosed compound, Cpd3, on in vivo tumor growth was assessed in a MOLM13 xenograft study was examined using a daily dosage regimen. Briefly, male NCG (NOD-Prkdc^em26Cd52//2rg^em26Cd22/NjuCrl) mice (N=12 per group) were given an intravenous injection of 1×10^4 luciferase-expressing MOLM-13 cells. As discussed above, this model is believed to be a very aggressive model of tumor growth (vehicle treated mice typically reach early removal criteria by 24-26 days post-engraftment). Briefly, NCG mice were injected with 1×10^4 MOLM13-luciferase cells (N=12 per group) and at 4 days post-engraftment (Day 0) were imaged and enrolled into one of three treatment groups: Vehicle, 25 mg/kg Cpd3 (administered daily) or 50 mg/kg Cpd3 (administered daily). […] The color scale represents the radiance (p/s/cm2/sr), related to the amount of luciferase expression and therefore disease burden. […] Survival data were calculated using Kapler Meyer analysis (vehicle vs. 25 mg/kg dosing with Cpd3 or vehicle vs. 50 mg/kg dosing with Cpd3; each p<0.001). Arrow indicates the start of treatment.

primary human AML cells [4] = experiment: CyTOF analysis of neutrophil differentiation; type: cell-based; settings: 0.5 μM, 7 days, cytokine supplemented media
Experimental: CyTOF analysis: primary human AML cells were treated with vehicle (DMSO) or Cpd3 (0.5 μM) in the presence of cytokine supplemented media for 7 days. Cells were then incubated with 5-Iodo-2′-deoxyuridine for 10 minutes at 37° C. and fixed with Smart Tube proteomic stabilizer. 1-2×10^6 cells were washed twice with cell staining media (CSM; 0.5% BSA, 0.02% sodium azide in PBS), permeablized with cold, 0.01% saponin in PBS, barcoded using the Cell-ID 20-Plex Pd Barcoding Kit (Fluidigm), incubated for 30 minutes at room temperature, washed again 3× with CSM. Cells were then incubated with Fc blocking reagent (10 minutes at room temperature; RT) after which a cocktail of extracellular antibodies (Table 14 below) were added (50 minutes at RT, with shaking). Cells were washed with CSM, fixed for 15 minutes (10% CSM, 1.5% PFA, in PBS), and washed with CSM. Membrane permeablization was performed with ice cold methanol incubated for 20 minutes at −20° C., followed by washing 1× with PBS and 2× with CSM, and incubation with the intracellular antibody cocktail (Table 10) (50 minutes at RT, with shaking). Cells were then rinsed 2× in CSM, 1× in PBS, and incubated in PBS containing 1.5% PFA and 125 nM iridium intercalator (pentamethylcyclopentadienyl-Ir(III)-dipyridophenazine) (Fluidigm) at 4° C. […]

CCOc1ccc(-c2ccc(-c3cc(C(=O)O)c4cc(F)ccc4n3)cc2)cc1 [Cpd3, 2-(4′-ethoxy-[1,1′-biphenyl]-4-yl)-6-fluoroquinoline-4-carboxylic acid]
IC50 (MOLM-13): 0.4 µM
IC50 (HL-60): 0.28 µM
induction of CD11b and CD14 positive cells (primary human AML cells [1]): induces CD11 b and CD14 in primary human AML cells
tumor burden (luciferase expression by IVIS imaging) [2]: able to reduce the tumor burden in the mice
Median survival time ([3]; 25 mg/kg QD PO): 24 days
Median survival time ([3]; 50 mg/kg QD PO): 27 days
tumor burden (luciferase expression by IVIS imaging) ([3]; 25 or 50 mg/kg administered daily): able to reduce the tumor burden in the mice
induction of neutrophil differentiation (primary human AML cells [4]): significant induction of neutrophil differentiation
